# Values of other authors in patent publication EP0305400B1, “A COMPOSITION HAVING REDUCED NEPHROTOXICITY COMPRISING A FATTY ACID CONTAINING COMPONENT AND CYCLOSPORINE” (BRIGHAM AND WOMEN'S HOSPITAL, priority 1986, dated 1987).
# Tested on: Tx synthetase
# Settings: rats treated with CSA
smiles,measurement,value
"Cc1c(Cn2ccnc2)c2ccccc2n1CCC(=O)O [UK-38,485]",glomerular filtration rate (GFR),improved
same,urinary TxB2 levels,comparable to control levels
